pIC50, pKd: −log10 of the molar value. Active and inactive are the calls of the source. The calls are words filed in the database; no cut-off is given here. Peptide text beside a SMILES is read from it.
What was measured:
[1] = system: MCF7; test: Antiproliferative activity against human MCF7 cells under dark condition by CCK8 assay; assay type: functional, cell-based
[2] = system: HepG2; test: Induction of ROS generation in human HepG2 cells at 10 uM preincubated for 24 hrs followed by DCFH-DA probe addition and further incubated under dark condition for 20 mins prior and 20 mins post- light irradiation of 10 J/cm2 at 660 nm by flow cytometry; assay type: functional, cell-based; settings: time 24.66 hrs
[3] = system: HepG2; test: Antitumor activity in human HepG2 cells xenografted in BALB/C nude mouse model assessed as tumor growth inhibition at 1 to 2 uM/kg, iv administered every two days for 21 days along with 250 mW/cm2 light irradiation at 660 nm for 10 mins at 1 hr post-compound administration relative to control; assay type: functional; settings: dose 1-2 µM/Kg, time 505.166 hrs, 505.17 h, at 1 to 2 µmol/kg
[4] = Drug uptake in human HUVEC cells at 500 nM incubated for 0.5 hrs by flow cytometry; assay type: ADME, cell-based; settings: 0.5 µM
[5] = system: HepG2; test: Induction of apoptosis in human HepG2 cells assessed as necrotic cells at 5 uM incubated for 24 hrs followed by 10 J/cm2 of light irradiation at 660 nm measured after 24 hrs by Annexin V-FITC/PI staining based flow cytometry relative to control; assay type: functional; settings: time 48 hrs
[6] = system: MCF7; test: Antitumor activity against human MCF7 cells xenografted in BALB/C nude mouse model assessed as decrease in tumor growth at 1 to 2 uM/kg, iv administered every two days for 21 days along with 250 mW/cm2 light irradiation at 660 nm for 10 mins at 1 hr post-compound administration; assay type: functional, organism-based; settings: dose 1-2 µM/Kg, time 505.166 hrs
[7] = Toxicity in BALB/C nude mouse model xenografted with human HepG2 cells assessed as drug tolerance at 1 to 2 uM/kg, iv administered every two days for 21 days along with 250 mW/cm2 light irradiation at 660 nm for 10 mins at 1 hr post-compound administration; assay type: organism-based; settings: in vivo, 505.17 h, dose 1-2 µM/Kg, time 505.166 hrs
[8] = Drug distribution in tumor of BALB/C nude mouse model xenografted with human HepG2 cells at 1 to 2 uM/kg, iv measured for 1 to 4 hrs by fluorescence imaging analysis; assay type: ADME, organism-based, Neoplasm; settings: in vivo, dose lower 1 µM/Kg, time lower 1 hrs, dose upper 2 µM/Kg, time upper 4 hrs
[9] = Drug uptake in endoplasmic reticulum of human HepG2 cells assessed as pearsons co-efficient of ER tracker green-yellow signal at 2 uM incubated for 24 hrs by laser confocal microscopy; assay type: ADME, subcellular; settings: hepg2, 24 h
[10] = Toxicity in BALB/C nude mouse model xenografted with human HepG2 cells assessed as body weight loss at 1 to 2 uM/kg, iv administered every two days for 21 days along with 250 mW/cm2 light irradiation at 660 nm for 10 mins at 1 hr post-compound administration; assay type: organism-based; settings: in vivo, 505.17 h, dose 1-2 µM/Kg, time 505.166 hrs
[11] = Aggregation property of compound in PBS; assay type: physicochemical; settings: buffer
[12] = system: HepG2; test: Antiproliferative activity against human HepG2 cells under dark condition by CCK8 assay; assay type: functional, cell-based
[13] = system: HepG2; test: Induction of apoptosis in human HepG2 cells assessed as early apoptotic cells under dark condition at 2.5 uM incubated for 24 hrs by Annexin V-FITC/PI staining based flow cytometry relative to control; assay type: functional
[14] = Partition coefficient, logP of compound; assay type: physicochemical; settings: octanol/water
[15] = system: HepG2; test: Induction of apoptosis in human HepG2 cells assessed as necrotic cells under dark condition at 5 uM incubated for 24 hrs by Annexin V-FITC/PI staining based flow cytometry relative to control; assay type: functional
[16] = […] assessed as decrease in fluorescence intensity of DMA; assay type: functional
[17] = system: HeLa; test: Antiproliferative activity against human HeLa cells under dark condition by CCK8 assay; assay type: functional, cell-based
[18] = Drug distribution in tumor of BALB/C nude mouse model xenografted with human HepG2 cells administered intravenously measured after 2 hrs by fluorescence spectrophotometry; assay type: ADME, tissue-based, Neoplasm; settings: in vivo, iv, dose 1-2 µM/Kg
[19] = system: HepG2; test: Antitumor activity against human HepG2 cells xenografted in BALB/C nude mouse model assessed as decrease in Ki67 expression at 1 to 2 uM/kg, iv administered every two days for 21 days along with 250 mW/cm2 light irradiation at 660 nm for 10 mins at 1 hr post-compound administration by […] based analysis; assay type: functional, organism-based; settings: dose 1-2 µM/Kg, time 505.166 hrs
[20] = Drug uptake in human HepG2 cells at 500 nM incubated for 2 hrs by flow cytometry; assay type: ADME, cell-based; settings: hepg2, 2 h, 0.5 µM
[21] = system: HepG2; test: Induction of ROS generation in human HepG2 cells at 10 uM incubated for 24 hrs by DCFH-DA probe based flow cytometry; assay type: functional, cell-based
[22] = system: HepG2; test: Induction of apoptosis in human HepG2 cells assessed as late apoptotic cells under dark condition at 2.5 uM incubated for 24 hrs by Annexin V-FITC/PI staining based flow cytometry relative to control; assay type: functional
[23] = system: HepG2; test: Induction of apoptosis in human HepG2 cells assessed as early apoptotic cells under dark condition at 5 uM incubated for 24 hrs by Annexin V-FITC/PI staining based flow cytometry relative to control; assay type: functional
[24] = Toxicity in BALB/C nude mouse model xenografted with human HepG2 cells assessed as change in liver weight at 1 to 2 uM/kg, iv administered every two days for 21 days along with 250 mW/cm2 light irradiation at 660 nm for 10 mins at 1 hr post-compound administration; assay type: organism-based; settings: in vivo, 505.17 h, dose 1-2 µM/Kg, time 505.166 hrs
[25] = Toxicity in BALB/C nude mouse model xenografted with human HepG2 cells assessed as damage in liver at 1 to 2 uM/kg, iv administered every two days for 21 days along with 250 mW/cm2 light irradiation at 660 nm for 10 mins at 1 hr post-compound administration by H and E staining based analysis; assay type: organism-based; settings: in vivo, 505.17 h, dose 1-2 µM/Kg, time 505.166 hrs
[26] = biological target: Glypican-3 (Homo sapiens, UniProt P51654); test: Binding affinity to GPC3 (unknown origin) assessed as dissociation constant by fluorescence polarization assay
Sequence of Glypican-3 (P51654 25-358 limits assumed): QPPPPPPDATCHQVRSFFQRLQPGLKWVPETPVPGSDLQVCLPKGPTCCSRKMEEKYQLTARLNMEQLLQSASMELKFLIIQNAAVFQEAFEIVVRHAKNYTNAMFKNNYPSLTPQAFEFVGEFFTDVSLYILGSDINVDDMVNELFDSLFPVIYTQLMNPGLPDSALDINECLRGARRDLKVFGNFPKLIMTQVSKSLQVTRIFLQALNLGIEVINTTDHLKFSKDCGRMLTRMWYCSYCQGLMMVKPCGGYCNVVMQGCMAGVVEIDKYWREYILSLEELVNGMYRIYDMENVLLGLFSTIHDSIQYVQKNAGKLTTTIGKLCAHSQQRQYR
Sequence of Glypican-3 (P51654 359-554 limits assumed): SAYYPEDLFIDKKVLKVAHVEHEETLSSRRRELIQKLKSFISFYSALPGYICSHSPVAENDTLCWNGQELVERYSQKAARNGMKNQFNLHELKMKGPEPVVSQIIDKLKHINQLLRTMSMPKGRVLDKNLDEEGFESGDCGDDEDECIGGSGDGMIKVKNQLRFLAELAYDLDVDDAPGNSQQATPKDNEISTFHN

[27] = Drug distribution in tumor of BALB/C nude mouse model xenografted with human HepG2 cells at 1 uM/kg, iv measured after 2 hrs by fluorescence spectrophotometry; assay type: ADME, organism-based, Neoplasm; settings: in vivo
[28] = Drug distribution in kidney of BALB/C nude mouse model xenografted with human HepG2 cells at 1 to 2 uM/kg, iv measured for 1 to 4 hrs by fluorescence imaging analysis; assay type: ADME, organism-based; settings: in vivo, dose lower 1 µM/Kg, time lower 1 hrs, dose upper 2 µM/Kg, time upper 4 hrs
[29] = system: HeLa; test: Antiproliferative activity against human HeLa cells under 10 J/cm2 light irradiation at 660 nm by CCK8 assay; assay type: functional, cell-based; settings: light or radiation study
[30] = Toxicity in BALB/C nude mouse model xenografted with human HepG2 cells assessed as change in kidney weight at 1 to 2 uM/kg, iv administered every two days for 21 days along with 250 mW/cm2 light irradiation at 660 nm for 10 mins at 1 hr post-compound administration; assay type: organism-based; settings: in vivo, 505.17 h, dose 1-2 µM/Kg, time 505.166 hrs
[31] = system: HepG2; test: Induction of apoptosis in human HepG2 cells assessed as early apoptotic cells at 2.5 uM incubated for 24 hrs followed by 10 J/cm2 of light irradiation at 660 nm measured after 24 hrs by Annexin V-FITC/PI staining based flow cytometry relative to control; assay type: functional; settings: time 48 hrs

For `C=Cc1c(C)c2cc3nc(c(CC(=O)O)c4[nH]c(cc5nc(cc1[nH]2)C(C)=C5CC)c(C)c4C(=O)NCCCC(=O)N[C@@H](CC(=O)O)C(=O)N[C@@H](Cc1cnc[nH]1)C(=O)N[C@@H](CC(C)C)C(=O)N[C@@H](C)C(=O)N[C@@H](CO)C(=O)N[C@@H](CC(C)C)C(=O)N[C@@H](Cc1c[nH]c2ccccc12)C(=O)N[C@@H](Cc1c[nH]c2ccccc12)C(=O)NCC(=O)N[C@H](C(=O)N[C@@H](CCC(=O)O)C(=O)N[C@@H](CC(C)C)C(=O)O)[C@@H](C)O)[C@@H](CCC(=O)O)[C@@H]3C` (HELM PEPTIDE1{[C=Cc1c(C)c2cc3nc(c(CC(=O)O)c4[nH]c(cc5nc(cc1[nH]2)C(C)=C5CC)c(C)c4C(=O)[*:2])[C@@H](CCC(=O)O)[C@@H]3C].[O=C(CCCN[*:1])[*:2]].D.H.L.A.S.L.W.W.G.T.E.L}$$$$V2.0), the pIC50 [1] was under 4.00, the Activity [2] was “Active” and the TGI [3] was 100%. For the same compound, the Drug uptake [4] was “Not Active”, the Activity [5] was 15.3% and the Activity [6] was “Active”. The Activity [7] was “Non-Toxic”, the Drug uptake [8] was “Active” and the Activity [9] was 0.65. For the same compound, the Activity [10] was “Non-Toxic”, the Activity [11] was “Active” and the pIC50 [12] was under 4.00. It also gave an Activity [13] of 2.7%, a logP [14] of 1.8 and an Activity [15] of 0.1%. The Activity [16] was “Active”, the pIC50 [17] was under 4.00 and the Drug uptake [18] was “Dose-Dependent Effect”. For the same compound, the Activity [19] was “Active”, the Drug uptake [20] was “Dose-Dependent Effect” and the Activity [21] was “inactive”. The Activity [22] was 2%, the Activity [23] was 2.3% and the Activity [24] was “Non-Toxic”. For the same compound, the Activity [25] was “Non-Toxic”, the pKd [26] was 6.42 and the Drug uptake [27] was “Active”. The Drug uptake [28] was “Not Active”, the pIC50 [29] was under 5.00 and the Activity [30] was “Non-Toxic”. The Activity [31] was 0.1%.
